The assay deals with T1, Vc (6-4) PL (Vibrio cholerae, UniProt Q9KLD7).
T1 construct: gene VC_A0809
Description: X-ray crystallography, […] Å. The format is binding. As to conditions: 100 K.

T1 sequence (Q9KLD7 1-516 limits assumed): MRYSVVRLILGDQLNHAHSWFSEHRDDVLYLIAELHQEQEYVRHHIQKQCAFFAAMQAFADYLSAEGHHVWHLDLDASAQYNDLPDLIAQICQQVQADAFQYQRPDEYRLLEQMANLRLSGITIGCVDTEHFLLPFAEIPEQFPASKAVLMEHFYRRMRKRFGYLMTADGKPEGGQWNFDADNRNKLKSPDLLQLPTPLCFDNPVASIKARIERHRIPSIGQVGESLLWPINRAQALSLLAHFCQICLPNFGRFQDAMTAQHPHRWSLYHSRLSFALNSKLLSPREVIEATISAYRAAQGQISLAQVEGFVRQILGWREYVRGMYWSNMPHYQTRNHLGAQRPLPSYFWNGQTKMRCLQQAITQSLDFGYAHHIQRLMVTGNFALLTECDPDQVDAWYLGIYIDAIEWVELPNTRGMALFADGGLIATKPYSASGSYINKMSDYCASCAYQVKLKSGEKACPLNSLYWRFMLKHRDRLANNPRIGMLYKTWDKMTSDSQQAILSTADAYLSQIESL

`[S]12[Fe]3[S]4[Fe]1[S]1[Fe]2[S]3[Fe]41` [[4Fe-4S] cluster]: where the note is “bound by Cys357, Cys445, Cys448, Cys461, covalent coordination, co-purified aerobically”, the “X-ray crystallography, 2.5 Å” value is “Cys357, Cys445, Cys448, and Cys461 sulfide atoms make bonds with Fe atoms in the cluster”. For `Cc1cc2nc3c(=O)[nH]c(=O)nc-3n(C[C@H](O)[C@H](O)[C@H](O)COP(=O)(O)OP(=O)(O)OC[C@H]3O[C@@H](n4cnc5c(N)ncnc54)[C@H](O)[C@@H]3O)c2cc1C` [FAD], the “X-ray crystallography, 2.5 Å” value (catalytic site in alpha-helical domain, co-purified, redox state not stated) was “FAD has a U-shaped conformation in the α-helical domain”. As to `Cc1nc2c(=O)[nH]c(=O)nc-2n(C[C@H](O)[C@H](O)[C@H](O)CO)c1C` [DMRL], the “X-ray crystallography, 2.5 Å” value (photoantenna site in alpha/beta domain, co-purified) is “there is a very well-defined electron density of the DMRL and interacting amino acid residues”.

The values are drawn from PMC9852545, “The crystal structure of Vibrio cholerae (6-4) photolyase reveals interactions with cofactors and a DNA-binding region” (The Journal of Biological Chemistry, 2022).
